The assay addresses BRS peptide (biotinylated peptide consisting of just the BRS of CD3 ε) (Mus musculus, UniProt P22646). The experiment in a line: solid-phase ELISA, biotinylated peptide, streptavidin-HRP. The class given is binding. The note with it: PBS, room temperature, data not shown.

Take PI(4,5)P2: where the note is “20/80 PI(4,5)P2/PC coated on plate”, the Kd was ~40 nM.

Consider PI(4)P, for which the Kd (20/80 PI(4)P/PC coated on plate) is ~40 nM.

For the origin of these results see publication PMC2954055 (Journal of immunology (Baltimore, Md. : 1950), 2009).
